From US7230085B2, “Anti-DOTA antibody” (Immunomedics, Inc., priority 2001, dated 2007)
Where a SMILES comes first, the peptide text is derived from it. The star is where a group is joined. DOTA = O=C(O)CN1CCN(CC(=O)O)CCN(CC(=O)*)CCN(CC(=O)O)CC1

Experiments:
LG1 IgG antibody = experiment: Binding of radiolabeled IMP 236 by LG1 on size-exclusion HPLC; set-up: species or system mouse; details: mixed with excess LG1; SE-HPLC shift
Procedure: Typical procedures for the production of radiolabeled DOTA-peptides incorporating, for example, Y-90 and Lu-177 are as follows. Of particular importance is the maximum specific activity achievable, which depends on the quality of the isotope. The radionuclide, obtained in an acidic solution, is treated with an excess of an acetate buffer, to a final pH of 4-6, and added to the DOTA-peptide conjugate, also in acetate buffer. All manipulations are carried out using acid-washed and metal-free components. The labeling mixture is heated at 45° C. for one hour and then allowed to cool to room temperature. Radiolabeled peptides are analyzed by RP-HPLC to determine incorporation, and are tested for binding to LG1, by mixing with a small excess of the LG1 mAb, and testing by analytical size-exclusion HPLC.
Yttrium-90 (^˜400 uCi per kit) is diluted to 1 mL in deionized water and added in one portion to the lyophilized IMP 236 kits of example 12. The kits are heated in a boiling water-bath for 15 min, and the vials then cooled to room temperature. The Y-90 radiolabeled peptides are analyzed by reverse-phase HPLC. […]
Indium-111 [In-111] radionuclide (^˜300 uCi added per kit) is diluted to 0.5 mL in deionized water and added to the lyophilized kits. […] The labeled peptide vials are cooled to room temperature and evaluated by reverse-phase HPLC. […]

[1] = system: human colonic tumor cell line, termed GW-39; experiment: Biodistribution in nude mice bearing GW-39 tumors; set-up: species or system NcR athymic nude mice; details: mouse, in vivo
Procedure: NcR athymic nude mice are implanted with cells of the human colonic tumor cell line, termed GW-39. When tumors have reached an appropriate size (>100 mm^3) agents are injected. The I-125-radioiodinated msAb is given first, and at different later times the In-111-IMP-236 is administered. The latter radiolabeled peptide is also given alone to a control group of animals. Doses given to each animal are 1.5×10^−10 moles of I-125-hMN-14×mLG1 (8 uCi of I-125 per animal), and 1.5×10^−11 moles of In-111-IMP-236. At specified times post-injection of the labeled IMP-236 animals are sacrificed and major internal tissues are collected and quantified for both I-125 and In-111 radioactivity.

hLL2-DOTA = experiment: Qualitative binding on size-exclusion HPLC; details: SE-HPLC
Excerpt: (§1) The msAb, LG1×hMN-14 (Fab′×Fab) is shown by the same analysis to bind to hLL2-DOTA-yttrium.

hLL2-DOTA-yttrium = experiment: Qualitative binding on size-exclusion HPLC; details: SE-HPLC
Excerpt: as §1

hMN-14-DOTA-yttrium-90 = experiment: Qualitative binding on size-exclusion HPLC; details: SE-HPLC

“Ac-Phe-Lys(DOTA)-Tyr-Lys(DOTA)-NH2 (Ac-FK(DOTA)YK(DOTA)-NH2; SMILES CC(=O)N[C@@H](Cc1ccccc1)C(=O)N[C@@H](CCCCNC(=O)CN1CCN(CC(=O)O)CCN(CC(=O)O)CCN(CC(=O)O)CC1)C(=O)N[C@@H](Cc1ccc(O)cc1)C(=O)N[C@@H](CCCCNC(=O)CN1CCN(CC(=O)O)CCN(CC(=O)O)CCN(CC(=O)O)CC1)C(N)=O) [IMP 236]” was tested, and the “binding of radiolabeled peptide by LG1” value (LG1 IgG antibody) was “bind strongly”.

In the case of CC(=O)N[C@@H](Cc1ccccc1)C(=O)N[C@@H](CCCCNC(=O)CN1CCN(CC(=O)O)CCN(CC(=O)O)CCN(CC(=O)O)CC1)C(=O)N[C@@H](Cc1ccc(O)cc1)C(=O)N[C@@H](CCCCNC(=O)CN1CCN(CC(=O)O)CCN(CC(=O)O)CCN(CC(=O)O)CC1)C(N)=O [In-111-IMP-236, metal not drawn] (Ac-FK(DOTA)YK(DOTA)-NH2), the “Blood, 30 minutes” value [1] is reported as 1.0 ± 0.3 percent injected dose per gram of tissue, the “Blood, 3 h” value [1] is reported as 0.0 ± 0.0 percent injected dose per gram of tissue and the “Blood, 24 h” value [1] is reported as 0.0 ± 0.0 percent injected dose per gram of tissue. The “Blood, In-111, 3 h” value [1] was 0.4 ± 0.0 percent injected dose per gram of tissue, the “Blood, In-111, 24 h” value [1] was 0.0 ± 0.0 percent injected dose per gram of tissue and the “Kidney, 30 minutes” value [1] was 4.2 ± 0.7 percent injected dose per gram of tissue. For the same molecule, the “Kidney, 3 h” value [1] was 2.2 ± 0.2 percent injected dose per gram of tissue, the “Kidney, 24 h” value [1] was 0.0 ± 0.0 percent injected dose per gram of tissue and the “Kidney, In-111, 3 h” value [1] was 2.5 ± 0.6 percent injected dose per gram of tissue. For the same molecule, the “Kidney, In-111, 24 h” value [1] was 1.0 ± 0.2 percent injected dose per gram of tissue, the “Liver, 30 minutes” value [1] was 0.3 ± 0.1 percent injected dose per gram of tissue and the “Liver, 3 h” value [1] was 0.2 ± 0.1 percent injected dose per gram of tissue. The “Liver, 24 h” value [1] was 0.0 ± 0.0 percent injected dose per gram of tissue, the “Liver, In-111, 3 h” value [1] was 0.2 ± 0.0 percent injected dose per gram of tissue and the “Liver, In-111, 24 h” value [1] was 0.1 ± 0.0 percent injected dose per gram of tissue. For the same molecule, the “Lungs, 30 minutes” value [1] was 0.7 ± 0.2 percent injected dose per gram of tissue, the “Lungs, 3 h” value [1] was 0.1 ± 0.0 percent injected dose per gram of tissue and the “Lungs, 24 h” value [1] was 0.0 ± 0.0 percent injected dose per gram of tissue. The “Lungs, In-111, 3 h” value [1] was 0.2 ± 0.0 percent injected dose per gram of tissue, the “Lungs, In-111, 24 h” value [1] was 0.0 ± 0.0 percent injected dose per gram of tissue and the “Spleen, 30 minutes” value [1] was 0.3 ± 0.1 percent injected dose per gram of tissue. For the same molecule, the “Spleen, 3 h” value [1] was 0.1 ± 0.0 percent injected dose per gram of tissue, the “Spleen, 24 h” value [1] was 0.0 ± 0.0 percent injected dose per gram of tissue and the “Spleen, In-111, 3 h” value [1] was 0.2 ± 0.0 percent injected dose per gram of tissue. For the same molecule, the “Spleen, In-111, 24 h” value [1] was 0.1 ± 0.0 percent injected dose per gram of tissue, the “Stomach, 30 minutes” value [1] was 0.2 ± 0.1 percent injected dose per gram of tissue and the “Stomach, 3 h” value [1] was 0.0 ± 0.0 percent injected dose per gram of tissue. The “Stomach, 24 h” value [1] was 0.0 ± 0.0 percent injected dose per gram of tissue, the “Stomach, In-111, 3 h” value [1] was 0.1 ± 0.2 percent injected dose per gram of tissue and the “Stomach, In-111, 24 h” value [1] was 0.0 ± 0.0 percent injected dose per gram of tissue. The “Tumor, 30 minutes” value [1] was 1.6 ± 0.3 percent injected dose per gram of tissue, the “Tumor, 3 h” value [1] was 0.1 ± 0.0 percent injected dose per gram of tissue and the “Tumor, 24 h” value [1] was 0.0 ± 0.0 percent injected dose per gram of tissue. For the same molecule, the “Tumor, In-111, 3 h” value [1] was 6.4 ± 1.1 percent injected dose per gram of tissue, the “Tumor, In-111, 24 h” value [1] was 1.3 ± 0.3 percent injected dose per gram of tissue and the elimination [1] was “quickly eliminated via the renal system”.

B1: Fab fragment of LG1: Fab fragment from ficin digestion of LG1 IgG (antibody, V domains shown)
VH: EVMLVESGGGLVKPGGSLTLSCAASGFTFTAHAMSWVRQTPEKRLEWVATISGGGTYTYFPDSFQGRFTISSDNAKNTLYLQMSSLRSEDTSMYFCTRHGDYRYAFGYWGQGTLVTVSA
VL: VVTQESALTTSPGETVTLTCRSSSGAVTTNNYANWVQEKPDHLFTGLIGGTNNRAPGVPARFSGSLIGDKAALTITGAQTEDEAIYFCALWFSDHWVFGGGTELTVLG
For B1, the “binding to hLL2-DOTA” value (hLL2-DOTA) was “positive binding”, the “binding to hLL2-DOTA-yttrium” value (hLL2-DOTA-yttrium) was “positive binding” and the “binding to hMN-14-DOTA-yttrium-90” value (hMN-14-DOTA-yttrium-90) was “positive binding”.
